Data from patent publication US20250388605A1, “HETEROBIFUNCTIONAL COMPOUNDS AND METHODS OF TREATING DISEASE” (Halda Therapeutics OpCo, Inc., priority 2022, published 2025).

Tests used:
[1] = test system: T-Rex 293 cell line SC3 cells having increased expression of androgen receptor protein due to exposure to doxycycline; experiment: Cellular growth inhibition, T-Rex 293 SC3 cells with doxycycline (increased androgen receptor expression), CellTiter-Glo; type: cell-based; conditions: T-Rex 293 SC3 cells with 10 ng/mL doxycycline (increased androgen receptor expression), 72 hours, CellTiter-Glo 2.0
Summary of the method: (§1)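 Doxycycline (10 ng/mL) was either included or omitted to toggle wild-type androgen receptor expression in SC3 cells, a T-Rex 293 clone, grown in stripped-serum, phenol red-free medium. After 72 hours with compound, viable cells were quantified by CellTiter-Glo 2.0.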

[2] = test system: T47D cells; experiment: Cellular Growth Inhibition Assay for T47D Cells (CellTiter-Glo); type: cell-based, human; conditions: 72 hours
Summary of the method: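 GI50 values derive from four-parameter regression of CellTiter-Glo 2.0 luminescence, using zero luminescence as baseline. Human breast cancer T47D cells (3000/well; DMEM, 10% FBS, 0.2 units/mL insulin) were exposed for 72 h to compound dilutions at 0.5% DMSO, with dosing starting 24 h after seeding.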

[3] = test system: VCaP cells; experiment: Cellular growth inhibition assay for VCaP cells, CellTiter-Glo; type: cell-based, human; conditions: 72 hours
Summary of the method: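 GI50 values come from four-parameter curve fits of luminescence data normalized to a zero baseline. Compound, in medium with 0.5% DMSO, was added one day after plating and left for 72 h before CellTiter-Glo 2.0 addition.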

[4] = test system: T-Rex 293 cell line SC3 cells lacking increased expression of androgen receptor protein; experiment: Cellular growth inhibition, T-Rex 293 SC3 cells without doxycycline (no increased androgen receptor expression), CellTiter-Glo; type: cell-based; conditions: T-Rex 293 SC3 cells not exposed to doxycycline (no increased androgen receptor expression), 72 hours
Summary of the method: as §1

| Compound | GI50 [1] [nM] | GI50 ([2]; Homo sapiens) [nM] | GI50 ([3]; Homo sapiens) [nM] | GI50 [4] [nM] | GI50 [2] [nM] | GI50 [3] [nM] |
| --- | --- | --- | --- | --- | --- | --- |
| Cn1cc(-c2cc(C(C)(C)O)ccc2Oc2ccc(N3CC(CC4CN(c5cnc(C(=O)N[C@H]6C(C)(C)[C@H](Oc7ccc(C#N)c(Cl)c7)C6(C)C)nc5)C4)C3)cc2)c2cc[nH]c2c1=O [Compound I-323] | 500 to 1500 | < 500 | < 500 | 500 to 1500 |  |  |
| Cn1cc(-c2cc(C(C)(C)O)ccc2Oc2cccc(N3CCC(CC4CCN(c5ncc(C(=O)N[C@H]6C(C)(C)[C@H](Oc7ccc(C#N)c(Cl)c7)C6(C)C)cn5)CC4)CC3)c2)c2cc[nH]c2c1=O [Compound I-325] | < 500 |  |  | > 3000 | < 500 | > 3000 |
| Cn1cc(-c2cc(C(C)(C)O)ccc2Oc2ccc(OC3CC4(C3)CC3(CCN(c5ncc(C(=O)N[C@H]6C(C)(C)[C@H](Oc7ccc(C#N)c(Cl)c7)C6(C)C)cn5)CC3)C4)cc2)c2cc[nH]c2c1=O [Compound I-326] | < 500 | < 500 | < 500 | > 3000 |  |  |
| Cn1cc(-c2cc(C(C)(C)O)ccc2Oc2ccc(CN3CC4(C3)CN(c3ncc(C(=O)N[C@H]5C(C)(C)[C@H](Oc6ccc(C#N)c(Cl)c6)C5(C)C)cn3)C4)cc2)c2cc[nH]c2c1=O [Compound I-327] | < 500 | < 500 | < 500 | < 500 |  |  |
| Cn1cc(-c2cc(C(C)(C)O)ccc2Oc2ccc(OC3CCN(C4CCN(c5ncc(C(=O)N[C@H]6C(C)(C)[C@H](Oc7ccc(C#N)c(Cl)c7)C6(C)C)cn5)CC4)CC3)cc2)c2cc[nH]c2c1=O [Compound I-328] | < 500 | < 500 | < 500 | < 500 |  |  |
| Cn1cc(-c2cc3c(cc2Oc2ccc(N4CC(CC5CN(c6ncc(C(=O)N[C@H]7C(C)(C)[C@H](Oc8ccc(C#N)c(Cl)c8)C7(C)C)cn6)C5)C4)cc2)CCC3(C)O)c2cc[nH]c2c1=O (stereo partly drawn) [Compound I-329, N-[3-(3-chloro-4-cyano-phenoxy)-2,2,4,4-tetramethyl-cyclobutyl]-2-[3-[[1-[4-[1-hydroxy-1-methyl-6-(6-methyl-7-oxo-1H-pyrrolo[2,3-c]pyridin-4-yl)indan-5-yl]oxyphenyl]azetidin-3-yl]methyl]azetidin-1-yl]pyrimidine-5-carboxamide] | < 500 | > 3000 | < 500 | > 3000 |  |  |
| Cn1cc(-c2cc(C(C)(C)O)ccc2Oc2ccc(N3CC4(C3)CN(c3ncc(C(=O)N[C@H]5C(C)(C)[C@H](Oc6ccc(C#N)c(Cl)c6)C5(C)C)cn3)C4)cc2)c2cc[nH]c2c1=O [Compound I-330] | < 500 |  |  | < 500 | < 500 | < 500 |
| Cn1cc(-c2cc(C(C)(C)O)ccc2Oc2ccc(C3CC(N4CC5(CN(c6ncc(C(=O)N[C@H]7C(C)(C)[C@H](Oc8ccc(C#N)c(Cl)c8)C7(C)C)cn6)C5)C4)C3)cc2)c2cc[nH]c2c1=O (stereo partly drawn) [Compound I-331] | < 500 |  |  | < 500 | < 500 | < 500 |
| Cn1cc(-c2cc(C(C)(C)O)ccc2Oc2ccc(N3CC(CC4CCN(c5ncc(C(=O)N[C@H]6C(C)(C)[C@H](Oc7ccc(C#N)c(Cl)c7)C6(C)C)cn5)CC4)C3)nc2)c2cc[nH]c2c1=O [Compound I-333, N-[3-(3-chloro-4-cyano-phenoxy)-2,2,4,4-tetramethyl-cyclobutyl]-2-[4-[[1-[5-[4-(1-hydroxy-1-methyl-ethyl)-2-(6-methyl-7-oxo-1H-pyrrolo[2,3-c]pyridin-4-yl)phenoxy]-2-pyridyl]azetidin-3-yl]methyl]-1-piperidyl]pyrimidine-5-carboxamide] | < 500 | < 500 | < 500 | > 3000 |  |  |
| Cn1cc(-c2cc(C(C)(C)O)ccc2Oc2ccc(N3CC(CC4CCN(c5cnc(C(=O)N[C@H]6C(C)(C)[C@H](Oc7ccc(C#N)c(Cl)c7)C6(C)C)cn5)CC4)C3)nc2)c2cc[nH]c2c1=O [Compound I-334] | < 500 | < 500 | < 500 | > 3000 |  |  |
| Cn1cc(-c2cc(C(C)(C)O)ccc2Oc2ccc(CCC3CCN(c4cnc(C(=O)N[C@H]5C(C)(C)[C@H](Oc6ccc(C#N)c(Cl)c6)C5(C)C)cn4)CC3)cc2)c2cc[nH]c2c1=O [Compound I-335] | > 3000 |  |  | > 3000 | < 500 | 500 to 1500 |
| Cn1cc(-c2cc(C(C)(C)O)ccc2Oc2ccc(N3CC(CC4CN(c5ccc(C(=O)N[C@H]6C(C)(C)[C@H](Oc7ccc(C#N)c(Cl)c7)C6(C)C)cc5)C4)C3)cc2)c2cc[nH]c2c1=O [Compound I-336] | < 500 | < 500 | > 3000 | > 3000 |  |  |
| CCS(=O)(=O)Nc1ccc(Oc2ccc(N3CC(CC4CCN(c5ncc(C(=O)N[C@H]6C(C)(C)[C@H](Oc7ccc(C#N)c(Cl)c7)C6(C)C)cn5)CC4)C3)cc2)c(-c2cn(C)c(=O)c3[nH]ccc23)c1 [Compound I-337] | < 500 | < 500 | < 500 | > 3000 |  |  |
| Cn1cc(-c2cc(C(C)(C)O)ccc2Oc2ccc(N3CC(CC4CCN(c5ccc(C(=O)N[C@H]6C(C)(C)[C@H](Oc7ccc(C#N)c(Cl)c7)C6(C)C)nc5)CC4)C3)cc2)c2cc[nH]c2c1=O [Compound I-338] | > 3000 | 500 to 1500 | > 3000 | > 3000 |  |  |
| Cn1cc(-c2cc(C(C)(C)O)ccc2Oc2ccc(OC[C@@H]3CCCN(c4ncc(C(=O)N[C@H]5C(C)(C)[C@H](Oc6ccc(C#N)c(Cl)c6)C5(C)C)cn4)C3)cc2)c2cc[nH]c2c1=O [Compound I-339] | < 500 | < 500 | > 3000 | > 3000 |  |  |
| Cn1cc(-c2cc(C(C)(C)O)ccc2Oc2ccc(OC[C@@H]3CCCN(c4cnc(C(=O)N[C@H]5C(C)(C)[C@H](Oc6ccc(C#N)c(Cl)c6)C5(C)C)cn4)C3)cc2)c2cc[nH]c2c1=O [Compound I-340] | > 3000 |  |  | > 3000 | < 500 | > 3000 |
| Cn1cc(-c2cc(C(C)(C)O)ccc2Oc2ccc(CCC3CCN(c4cnc(C(=O)N[C@H]5C(C)(C)[C@H](Oc6ccc(C#N)c(Cl)c6)C5(C)C)cn4)CC3)nc2)c2cc[nH]c2c1=O [Compound I-341] | < 500 |  |  | < 500 | < 500 | < 500 |
| Cn1cc(-c2cc(C(C)(C)O)ccc2Oc2ccc(N3CC4(CCCN(c5cnc(C(=O)N[C@H]6C(C)(C)[C@H](Oc7ccc(C#N)c(Cl)c7)C6(C)C)cn5)C4)C3)cc2)c2cc[nH]c2c1=O [Compound I-342] | < 500 |  |  | > 3000 | < 500 | < 500 |
| Cn1cc(-c2cc(C(C)(C)O)ccc2Oc2ccc(N3CC4(CCCN(c5ncc(C(=O)N[C@H]6C(C)(C)[C@H](Oc7ccc(C#N)c(Cl)c7)C6(C)C)cn5)C4)C3)cc2)c2cc[nH]c2c1=O [Compound I-343] | < 500 |  |  | > 3000 | < 500 | < 500 |
| Cn1cc(-c2cc(C(C)(C)O)ccc2-n2cc(N3CC(CC4CCN(c5ncc(C(=O)NC6C(C)(C)C(Oc7ccc(C#N)c(Cl)c7)C6(C)C)cn5)CC4)C3)ccc2=O)c2cc[nH]c2c1=O (stereo not drawn) [Compound I-344, N-[3-(3-chloro-4-cyano-phenoxy)-2,2,4,4-tetramethyl-cyclobutyl]-2-[4-[[1-[1-[4-(1-hydroxy-1-methyl-ethyl)-2-(6-methyl-7-oxo-1H-pyrrolo [2,3-c]pyridin-4-yl)phenyl]-6-oxo-3-pyridyl]azetidin-3-yl]methyl]-1-piperidyl]pyrimidine-5-carboxamide] | > 3000 | 500 to 1500 | > 3000 | > 3000 |  |  |
| Cn1cc(-c2cc(C(C)(C)O)ccc2Oc2ccc(N3CC(CC4CCN(c5ncc(C(=O)N[C@H]6C(C)(C)[C@H](Oc7ccc(C#N)c(Cl)c7)C6(C)C)cn5)CC4)C3)cn2)c2cc[nH]c2c1=O [Compound I-345, N-[3-(3-chloro-4-cyano-phenoxy)-2,2,4,4-tetramethyl-cyclobutyl]-2-[4-[[1-[6-[4-(1-hydroxy-1-methyl-ethyl)-2-(6-methyl-7-oxo-1H-pyrrolo [2,3-c]pyridin-4-yl)phenoxy]-3-pyridyl]azetidin-3-yl]methyl]-1-piperidyl]pyrimidine-5-carboxamide] | < 500 | < 500 | < 500 | > 3000 |  |  |
| Cn1cc(-c2cc(C(C)(C)O)ccc2Oc2ccc(N3CC(CC4CCN(c5cnc(C(=O)N[C@H]6C(C)(C)[C@H](Oc7ccc(C#N)c(Cl)c7)C6(C)C)cn5)CC4)C3)cn2)c2cc[nH]c2c1=O [Compound I-346] | < 500 | < 500 | < 500 | > 3000 |  |  |
| Cn1cc(-c2cc(C(C)(C)O)ccc2Oc2ccc(N3CCC(CC4CN(c5ncc(C(=O)N[C@H]6C(C)(C)[C@H](Oc7ccc(C#N)c(Cl)c7)C6(C)C)cn5)C4)CC3)cc2)c2cc[nH]c2c1=O [Compound I-350] | < 500 | < 500 | < 500 | < 500 |  |  |
| Cn1cc(-c2cc(C(C)(C)O)ccc2Oc2ccc(N3CC(C4CC5(C4)CN(c4ncc(C(=O)N[C@H]6C(C)(C)[C@H](Oc7ccc(C#N)c(Cl)c7)C6(C)C)cn4)C5)C3)cc2)c2cc[nH]c2c1=O [Compound I-351] | < 500 |  |  | < 500 | < 500 | < 500 |
